Patent publication US5652105A, “Substrate for detection of mammalian 5-C-DNA methyltransferase” (Health Research, Inc., priority 1995, dated 1997)
[5mC] = 5-methylcytosine

What was measured:
murine DNA 5-C-MTase [1] = test: Methylation assay: methyl transfer from [methyl-3H]AdoMet to ODNs by DNA methyltransferase from Friend erythroleukemia cell nuclei; format: biochemical; conditions: for rate of methylation relative to unmethylated A (times): ODNs with 5MeC in position 7 designed to form or not to form the stem-loop; for ACTIVITY (cpm), DNA methylase (FL): Table 5, S + M1 and its 5-fluorocytosine containing double stranded analogs; for RELATIVE ACTIVITY (rate of methylation relative to an equal amount of AS): Table 6, single-stranded ODN; for DNA METHYLASE (FL) SUBSTRATE ACTIVITY, ACTIVITY (CPM): Table 4, single and double stranded constructs, average of 2 expts, background 1813
Description: The phosphoramidite of 5-fluorodeoxycytidine (5FdC) and unmodified 5-methyl deoxycytosine (5MdC) and 5FC-containing ODNs were synthesized and purified as described in Marasco, C. J. et al., J. Org. […] 5MdC phosphoramidite is commercially available. ss ODNs were heated to 90° C. for 10 min and quickly chilled on ice immediately prior to assay. […] For ds ODNs, an equimolar mixture of complementary ODNs was heated to 90° C. for 10 min and slowly cooled to room temperature.
Preparation of Murine DNA 5-C-MTase. The DNA 5-C-MTase used in these studies was the 100,000×g supernatant of a 0.3M NaCl extract of Friend erythroleukemia cell nuclei.
Methylation Assay. Reaction mixtures (50 μl ) in 0.1M imidazole, pH 7.4/20 mM EDTA/0.5 mM dithiothreitol contained 0.5 μg of each ODN indicated, ≈0.6 units of DNA 5-C-MTase (1 unit transfers 1 pmol to A (AS)·A'Mp (M1) per min; see Table 7), and 2.8 μCi (1 Ci=37 GBq) of [methyl-^3 H]AdoMet (AdoMet=S-adenosylmethionine) (8 μM). […] For accuracy, methylation rates <5 pmol/30 min were measured in quadrupled reaction mixtures (200 μl ). After incubation for 30 min at 37° C., ODNs were processed for quantitation of radiolabel as described (20) with 25 μg of salmon sperm DNA added as carrier prior to perchloric acid precipitation.
All assays were performed in duplicate.

[2] = tested on: bacterial SssI methyltransferase; test: DNA methylase substrate activity with bacterial SssI enzyme preparation; format: biochemical; conditions: Table 3; bacterial SssI enzyme preparation; 0.25 μg oligomer; average of 2 expts; background 1351
Description: They are labeled Sense (S), Antisense (AS), Methylated Antisense 1 (M1) and Methylated Antisense 2 (M2). […] This property of M2 provides an approach to accurately monitoring levels of DNA methyltransferase activity in clinically obtained tissue samples that might otherwise be contaminated by bacteria, since bacterial DNA methyltransferase activity would be excluded as a component of this measurement.
RESULTS ARE AVERAGE OF 2 EXPTS. BACTERIAL SSS1 ENZYME PREPARATION. ASSAYE

murine DNA 5-C-MTase [3] = test: Methylation assay: methyl transfer from [methyl-3H]AdoMet to ODNs by DNA methyltransferase from Friend erythroleukemia cell nuclei; format: biochemical; conditions: Table 2; enzyme preparation from Friend leukemia cells; 1 μg oligomer; average of 2 expts; background 2691
[4] = target: T1, DNA 5-C-methyltransferase (murine, Friend erythroleukemia cells) (Mus musculus, UniProt P13864 P13864:1-1620); test: methylation rate; conditions: protein: extract; tags: 0.3 M NaCl nuclear extract, 100,000 x g supernatant; single approx. 190 kDa species forming covalent complexes
T1 sequence (P13864 whole entry, one chain of several): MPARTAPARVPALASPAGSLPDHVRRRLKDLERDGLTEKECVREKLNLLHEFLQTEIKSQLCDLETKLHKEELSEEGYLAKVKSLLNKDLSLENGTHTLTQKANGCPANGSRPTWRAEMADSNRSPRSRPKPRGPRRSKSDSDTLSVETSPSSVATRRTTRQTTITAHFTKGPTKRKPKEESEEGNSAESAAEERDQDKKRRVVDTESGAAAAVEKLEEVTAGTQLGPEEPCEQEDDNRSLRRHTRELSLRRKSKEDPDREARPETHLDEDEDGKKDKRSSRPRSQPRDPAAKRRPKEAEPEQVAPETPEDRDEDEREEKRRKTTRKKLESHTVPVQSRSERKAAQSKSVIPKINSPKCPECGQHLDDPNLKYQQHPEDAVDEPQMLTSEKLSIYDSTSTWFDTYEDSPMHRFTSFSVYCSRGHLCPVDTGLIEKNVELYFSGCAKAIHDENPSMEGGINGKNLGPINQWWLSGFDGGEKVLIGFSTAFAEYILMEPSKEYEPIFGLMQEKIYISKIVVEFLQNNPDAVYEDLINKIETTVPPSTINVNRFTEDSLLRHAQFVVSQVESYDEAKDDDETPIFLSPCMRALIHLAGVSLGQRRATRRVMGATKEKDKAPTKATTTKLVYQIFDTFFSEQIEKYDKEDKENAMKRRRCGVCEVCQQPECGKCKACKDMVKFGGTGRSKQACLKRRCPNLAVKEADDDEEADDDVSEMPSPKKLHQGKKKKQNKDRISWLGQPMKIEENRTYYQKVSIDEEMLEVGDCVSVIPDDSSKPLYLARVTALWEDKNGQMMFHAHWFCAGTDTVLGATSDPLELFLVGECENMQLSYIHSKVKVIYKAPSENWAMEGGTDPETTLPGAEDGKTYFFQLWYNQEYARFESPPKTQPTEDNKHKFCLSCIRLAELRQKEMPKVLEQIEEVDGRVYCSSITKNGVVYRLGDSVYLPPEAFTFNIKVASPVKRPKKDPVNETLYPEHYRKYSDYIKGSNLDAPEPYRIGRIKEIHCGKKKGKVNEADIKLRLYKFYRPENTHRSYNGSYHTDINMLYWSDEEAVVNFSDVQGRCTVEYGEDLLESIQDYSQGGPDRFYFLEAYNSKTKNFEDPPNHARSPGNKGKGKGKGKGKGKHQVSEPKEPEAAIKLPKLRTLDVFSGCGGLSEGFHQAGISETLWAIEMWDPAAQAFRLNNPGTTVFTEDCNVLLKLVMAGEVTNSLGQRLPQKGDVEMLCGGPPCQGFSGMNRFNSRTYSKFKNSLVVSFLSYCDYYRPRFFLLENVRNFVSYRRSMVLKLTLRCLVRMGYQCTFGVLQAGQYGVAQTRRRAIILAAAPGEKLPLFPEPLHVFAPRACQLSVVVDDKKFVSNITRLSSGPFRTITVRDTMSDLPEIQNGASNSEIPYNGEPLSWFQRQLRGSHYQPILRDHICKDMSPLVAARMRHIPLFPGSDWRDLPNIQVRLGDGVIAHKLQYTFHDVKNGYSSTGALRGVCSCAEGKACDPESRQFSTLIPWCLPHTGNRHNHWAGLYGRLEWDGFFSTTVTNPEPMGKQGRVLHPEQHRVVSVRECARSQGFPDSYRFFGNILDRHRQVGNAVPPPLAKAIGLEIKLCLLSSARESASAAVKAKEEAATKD

[5] = target: T1, DNA 5-C-methyltransferase (murine, …); test: methylation rate; conditions: protein: extract; tags: 0.3 M NaCl nuclear extract, 100,000 x g supernatant; single approx. 190 kDa species forming covalent complexes; remark: listed apart in the source
Description: (§1) Methylation Assay. Reaction mixtures (50 µl) in 0.1M imidazole, pH 7.4/20 mM EDTA/0.5 mM dithiothreitol contained 0.5 µg of each ODN indicated, ≈0.6 units of DNA 5-C-MTase (1 unit transfers 1 pmol to A (AS)·A'M_p (M1) per min; see Table 7), and 2.8 µCi (1 Ci=37 GBq) of [methyl-^3H]AdoMet (AdoMet=S-adenosylmethionine) (8 µM). Substrate C sites are in excess in the reaction, and methyl transfer is linear for >45 min. For accuracy, methylation rates <5 pmol/30 min were measured in quadrupled reaction mixtures (200 µl). After incubation for 30 min at 37° C., ODNs were processed for quantitation of radiolabel as described (20) with 25 µg of salmon sperm DNA added as carrier prior to perchloric acid precipitation.
(§2) Substitution of C residues with 5FC was used to determine which sites become substrates for enzymatic methylation in A strands containing 5MeC. It has been shown that both bacterial and mammalian DNA 5-C-MTases form stable covalent linkages with 5FC residues in DNA during the process of methylation. Under conditions of substrate excess, this leads to rapid inactivation of the enzymes. […] Thus, 5MeC in position 5 or 7 activates DNA 5-C-MTase to methylate C18 while failing to activate methylation of a C residue only two bases downstream.

[6] = target: T1, DNA 5-C-methyltransferase (murine, …); test: inhibition; methylation rate; 5FC in substrate site inactivates enzyme; conditions: protein: extract; tags: 0.3 M NaCl nuclear extract, 100,000 x g supernatant; single approx. 190 kDa species forming covalent complexes
Description: as §1, §2

[7] = target: T2, Hha I DNA methyltransferase (UniProt P05102 P05102:1-327); test: ss ODNs not substrates at 37 C
T2 sequence: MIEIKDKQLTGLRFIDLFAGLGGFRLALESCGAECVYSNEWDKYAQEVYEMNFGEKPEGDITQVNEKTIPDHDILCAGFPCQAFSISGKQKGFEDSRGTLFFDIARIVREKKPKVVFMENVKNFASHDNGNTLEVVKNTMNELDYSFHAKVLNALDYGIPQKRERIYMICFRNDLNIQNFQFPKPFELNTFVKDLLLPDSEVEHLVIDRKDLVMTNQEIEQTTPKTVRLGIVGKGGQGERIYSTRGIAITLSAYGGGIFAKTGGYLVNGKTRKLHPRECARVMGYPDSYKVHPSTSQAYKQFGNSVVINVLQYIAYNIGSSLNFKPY

[8] = Table 10, ss ODNs with 5 mC and 5 FC substitutions

Molecule: structure 8: ODN with 5MeC in position 7 that forms a homodimer but no stem-loop analogous to structures 5 and 6 (FIG. 9) (DNA ATTGCGCTACTCGGATCCGGCCAT; DNA, [5mC] at 7, backbone not given here)
- rate of methylation relative to unmethylated A (times) (murine DNA 5-C-MTase [1]): same rate as unmethylated A

Molecule: 5' GATCGCGGATCCGGAATGNGCAAT 3' (5-fluorocytosine, further chemistry not given here) [Seq. ID #14]
- ACTIVITY (cpm), DNA methylase (FL) (murine DNA 5-C-MTase [1]): 36,000 cpm

Molecule: 5' ATTGCGNATTCCGGATCCGCGATC 3' (5-methylcytosine at 7, further chemistry not given here) [ASM7, ODN A (AS) with 5-methylcytosine (N) at position 7]
- RELATIVE ACTIVITY (rate of methylation relative to an equal amount of AS) (murine DNA 5-C-MTase [1]): 170
- Rate of methylation (murine DNA 5-C-MTase [1]; Table 7, phosphorothioate end capped oligomers, standard cell free enzyme assay): 72,010 cpm/μg oligo/30 min
- RATE (rate of methylation relative to A) (murine DNA 5-C-MTase [1]; Table 9, ss ODNs with 5MeC substituted for C at the sites given): 140
- RATE (rate of methylation relative to A) (murine DNA 5-C-MTase [1]; [8]): 130
- stimulation of the rate of methylation by phosphorothioate capping (murine DNA 5-C-MTase [1]; activity of D compared with C): more than 50%

Molecule: 5' ATTGCGCATTCCGGATCCGCGATC 3' (chemistry not given here) [AS, unmethylated antisense single-stranded 24mer ODN]
- DNA METHYLASE (FL) SUBSTRATE ACTIVITY, ACTIVITY (CPM) (murine DNA 5-C-MTase [1]): 1936 CPM
- RELATIVE ACTIVITY (rate of methylation relative to an equal amount of AS) (murine DNA 5-C-MTase [1]): 1
- RATE (rate of methylation relative to A) (murine DNA 5-C-MTase [1]; [8]): 1
- DNA METHYLASE SUBSTRATE ACTIVITY, ACTIVITY (CPM) [2]: 49282 CPM
- DNA METHYLASE SUBSTRATE ACTIVITY, ACTIVITY (CPM) (murine DNA 5-C-MTase [3]): 12341 CPM

Molecule: 5' GATCGCGGATCNGGAATGCGCAAT 3' (5-fluorocytosine, further chemistry not given here) [Seq. ID #13]
- ACTIVITY (cpm), DNA methylase (FL) (murine DNA 5-C-MTase [1]): 28,000 cpm

Molecule: structure 6: ODN with 5MeC in position 7 that forms a stem-loop with the same relationship between C7 and C18 as A (FIG. 7, 8) (DNA ATGACGCACCTCGTTGACGCGCTA; DNA, [5mC] at 7, backbone not given here)
- rate of methylation relative to unmethylated A (times) (murine DNA 5-C-MTase [1]): > 300

Molecule: 3' TAACGCGTAAGGCCTAGGCGCTAG 5' (chemistry not given here; listed 3' to 5') [unmethylated sense single-stranded 24mer ODN]
- DNA METHYLASE (FL) SUBSTRATE ACTIVITY, ACTIVITY (CPM) (murine DNA 5-C-MTase [1]): 1598 CPM
- DNA METHYLASE SUBSTRATE ACTIVITY, ACTIVITY (CPM) [2]: 175225 CPM
- DNA METHYLASE SUBSTRATE ACTIVITY, ACTIVITY (CPM) (murine DNA 5-C-MTase [3]): 4843 CPM

Molecule: 5' ATTGCGNATTCCGGATCRGCGATC 3' (5-methylcytosine at 7, 5-fluorocytosine at 18, further chemistry not given here) [ASM7 F18, AS with 5-methylcytosine (N) at 7 and 5-fluorocytosine (R) at 18]
- inhibition of DNA methyltransferase (in words) (murine DNA 5-C-MTase [1]): potent
- RELATIVE ACTIVITY (rate of methylation relative to an equal amount of AS) (murine DNA 5-C-MTase [1]): 3
- RATE (rate of methylation relative to A) (murine DNA 5-C-MTase [1]; [8]): 3.2

Molecule: 5' ATTGNGCATTCNGGATCNGNGATC 3' (5-methylcytosine at 5, 12, 18, 20, further chemistry not given here) [M1, AS with 5-methylcytosine (N) at 5, 12, 18, 20 (all CpG sites)]
- DNA METHYLASE (FL) SUBSTRATE ACTIVITY, ACTIVITY (CPM) (murine DNA 5-C-MTase [1]): 1373 CPM
- DNA METHYLASE SUBSTRATE ACTIVITY, ACTIVITY (CPM) [2]: 2339 CPM
- DNA METHYLASE SUBSTRATE ACTIVITY, ACTIVITY (CPM) (murine DNA 5-C-MTase [3]): 5487 CPM

Molecule: 5' GATCGCGGATNCGGAATGCGCAAT 3' (5-fluorocytosine, further chemistry not given here) [Seq. ID #12]
- ACTIVITY (cpm), DNA methylase (FL) (murine DNA 5-C-MTase [1]): 140,000 cpm

B1: ASM17 (ssDNA)
DNA: ATTGCGCATTCCGGATCCGCGATC
modifications: 5mC at 17
- binding signal [4]: 3.5 relative to A

B2: ASM18 (ssDNA)
DNA: ATTGCGCATTCCGGATCCGCGATC
modifications: 5mC at 18
- binding signal [4]: 12 relative to A

B3: ASM20 (ssDNA)
DNA: ATTGCGCATTCCGGATCCGCGATC
modifications: 5mC at 20
- binding signal [4]: 2.5 relative to A

B4: M4 (SMx) (ssDNA)
DNA: GATCGCGGATCCGGAATGCGCAAT
modifications: 5mC at 11,21
- binding signal [4]: 75 relative to A

B5: A' 5mC4 (ssDNA)
DNA: GATCGCGGATCCGGAATGCGCAAT
modifications: 5mC at 4
- binding signal [4]: 0.4 relative to A

B6: A' 5mC6 (ssDNA)
DNA: GATCGCGGATCCGGAATGCGCAAT
modifications: 5mC at 6
- binding signal [4]: 42 relative to A

B7: A' 5mC11 (ssDNA)
DNA: GATCGCGGATCCGGAATGCGCAAT
modifications: 5mC at 11
- binding signal [4]: 1.7 relative to A

B8: A' 5mC12 (ssDNA)
DNA: GATCGCGGATCCGGAATGCGCAAT
modifications: 5mC at 12
- binding signal [4]: 67 relative to A

B9: A' 5mC19 (ssDNA)
DNA: GATCGCGGATCCGGAATGCGCAAT
modifications: 5mC at 19
- binding signal [4]: 1 relative to A

B10: A' 5mC21 (ssDNA)
DNA: GATCGCGGATCCGGAATGCGCAAT
modifications: 5mC at 21
- binding signal [4]: 37 relative to A

B11: A' 5mC6,19 (ssDNA)
DNA: GATCGCGGATCCGGAATGCGCAAT
modifications: 5mC at 6,19
- binding signal [4]: 1 relative to A

B12: AMx F5 (ssDNA)
DNA: ATTGCGCATTCCGGATCCGCGATC
modifications: 5mC at 7,11,17; 5-fluoro-C at 5 [5mC at 7,11,17; 5-fluoro-C at 5]
- binding signal [5]: 170 relative to A

B13: AMx F12 (ssDNA)
DNA: ATTGCGCATTCCGGATCCGCGATC
modifications: 5mC at 7,11,17; 5-fluoro-C at 12 [5mC at 7,11,17; 5-fluoro-C at 12]
- binding signal [5]: 165 relative to A

B14: AMx F18 (ssDNA)
DNA: ATTGCGCATTCCGGATCCGCGATC
modifications: 5mC at 7,11,17; 5-fluoro-C at 18 [5mC at 7,11,17; 5-fluoro-C at 18]
- binding signal [6]: 2 relative to A

B15: AMx F20 (ssDNA)
DNA: ATTGCGCATTCCGGATCCGCGATC
modifications: 5mC at 7,11,17; 5-fluoro-C at 20 [5mC at 7,11,17; 5-fluoro-C at 20]
- binding signal [5]: 168 relative to A

B16: ASM5 F18 (ssDNA)
DNA: ATTGCGCATTCCGGATCCGCGATC
modifications: 5mC at 5; 5-fluoro-C at 18
- binding signal [6]: 1 relative to A

B17: ASM5 F20 (ssDNA)
DNA: ATTGCGCATTCCGGATCCGCGATC
modifications: 5mC at 5; 5-fluoro-C at 20
- binding signal [5]: 152 relative to A

B18: ASM7 F20 (ssDNA)
DNA: ATTGCGCATTCCGGATCCGCGATC
modifications: 5mC at 7; 5-fluoro-C at 20 [5mC at 7; 5-fluoro-C at 20]
- binding signal [5]: 160 relative to A

B19: AS (A) (ssDNA)
DNA: ATTGCGCATTCCGGATCCGCGATC
- binding result [7]: no binding
